Tests used:
LoVo cells = assay: Phase-contrast cell phenotype, LoVo; assay type: cell-based
Method: MDCK, HEK293T, HepG2, MCF7 and ACHN cells were cultured in Dulbecco's Modified Eagles Medium (DMEM). MDCK stably expressing Hakai cells (Hakai-MDCK) were previously reported and were growth in DMEM with G418 (800 μg/ml). […] LoVo and PC-3 cells were cultured in F-12K Medium (Kaighn's Modification of Ham's F-12 Medium) and HT-29 and HCT116 cells in McCoy's 5a Medium Modified. 5637 cells were cultured in RPMI medium. All culture media were supplemented with 1% penicillin/streptomycin and 10% of heat-inactivated fetal bovine serum (FBS) at 37° C. in a humidified incubator with 5% CO2. Cells were monthly tested for mycoplasma contamination and used only for 1-3 months after defrosted. LoVo and HT29 cells were authenticated with the StemElite ID system (Promega). For phase-contrast images, culture cells were photographed with a Nikon Eclipse-TI microscope.

Hakai-MDCK cells = assay: BrdU proliferation assay, Hakai-MDCK; assay type: cell-based; conditions: 48 h
Method: For BrdU assays, 1×10^4 of indicated cells were plated per well into a 96-well plate. After 24 h, cells were treated with the indicated inhibitors for 48 h. Three independent experiments were plated with six replicates per each condition. Cells were treated with […] BrdU for 2 h. BrdU incorporation into newly synthesized DNA was measured using a cell proliferation colorimetric immunoassay kit according to the manufacturer's instructions (Roche, Switzerland). Results are expressed as mean±S.D. Results are represented as percentage of positive cells (mean±S.D) of three independent experiments.

[1] = test system: HCT116 colon cancer cells; assay: MTT cell viability assay, HCT116; assay type: cell-based, human; conditions: concentrations tested in the previous assays
Method: For cytotoxicity assays, 1×10^4 cells were seeded per well into a 96-well plate. After 24 h cells were treated with the indicated inhibitors for 72 h and a MTT colorimetric cell viability assay was performed following manufacturer's instructions (Sigma Aldrich, St Louis, Mo.). Absorbance was measured at 570 and 630 nm using a Multiskan Plus Reader (Nanoquant Infinite M200 Tecan Trading AG, Switzerland). Dose-response curves were designed with Graph Pad Prism Software and the half-maximal inhibitory concentration (IC50) values were calculated. Represented data are the mean±SEM of at least three independent experiments with six replicates per condition.

SMILES | cell phenotype by phase contrast (LoVo cells) | cell proliferation (BrdU) (Hakai-MDCK cells) | cytotoxic effect (cell viability, MTT) [1]
O=C(O)c1ccc(-n2nnnc2SCC(=O)c2ccc([N+](=O)[O-])cc2)cc1 [Hakin-1, 4-(5-[2-(4-nitrophenyl)-2-oxoethyl]thiol-1H-tetrazol-1-yl)benzoic acid] | modestly induce an epithelial phenotype | suppress proliferation | 
O=C(O)c1ccc(-n2nnnc2SCC(O)c2ccc([N+](=O)[O-])cc2)cc1 (stereo not drawn) [MKH1] |  |  | no cytotoxic effect

From patent US20230181535A1, “UBIQUITIN-LIGASE INHIBITORS FOR THE TREATMENT OF CANCER” (FUNDACIÓN PROFESOR NOVOA SANTOS, priority 2020, published 2023)
